We go through 70 compounds from PubChem BioAssay AID179 (DTP/NCI, 2004).

The source made the active and inactive calls.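 Rule for the calls: active = compounds giving half or more protection of infected cells from virus-caused growth loss, again on retest; inactive = the rest.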 Where only a bound is given, the exact number is not on record here.

This test concerns CEM cells HIV-1 protection, formazan growth assay. Briefly: NCI AIDS Antiviral Assay. As to conditions: for IC50: measured here: growth of uninfected CEM cells. Summed up: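 Human CEM cells, uninfected and HIV-1-infected, exposed to five drug concentrations; growth measured by soluble formazan assay and scored as percent protection from infection, with protecting compounds retested.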

`CSc1sc(C)cc1-c1nsc(=O)o1`: the EC50 is more than 200 µM and the IC50 was more than 200 µM.
As for `CC(=Nc1ccccc1C(=O)O)c1c(O)ccc2c(C)cc(=O)oc12`, the EC50 is more than 107 µM and the IC50 was more than 107 µM.
Consider `COc1ccc(C(c2c(O)c3ccccc3oc2=O)N2CCCC2)cc1` (centres undefined), for which the EC50 is more than 200 µM and the IC50 amounted to 123 µM.
In the same order, the values of `O=C(O)/C=C\C(=O)Nc1ccc(S(=O)(=O)c2ccc(NC(=O)/C=C\C(=O)O)cc2)cc1` are more than 562 µM and more than 562 µM.
With `COc1ccc(C2(C(OC)OC)NC(=O)N(C)C2=O)cc1` (centres undefined), the EC50 is more than 200 µM and the IC50 is more than 200 µM.
Turning to `O=C(Nc1cc(C(=O)Nc2ccc(C3=NCCN3)cc2)cc(C2=NCCN2)c1)c1ccc(C(=O)Nc2cc(C(=O)Nc3ccc(C4=NCCN4)cc3)cc(C3=NCCN3)c2)cc1`, the EC50 is 5.37 µM and the IC50 was found to be 89.1 µM.
On to `N#CNC1=NCCC(=O)N1CCc1c[nH]c2ccccc12`, for which the EC50 was 70.8 µM and the IC50 is more than 200 µM.
For `CC(=O)OCC1OC(OC2C(COC(C)=O)OC(Sc3ccccc3C)C(OC(C)=O)C2OC(C)=O)C(OC(C)=O)C(OC(C)=O)C1OC(C)=O` (centres undefined), the EC50 is more than 25.1 µM and the IC50 was more than 25.1 µM.
As to `CC1=Nc2nc(=NCCCN(C)C)nc3cccc(n23)N1`, the EC50 is more than 200 µM and the concentration for half-maximal inhibition (IC50) was more than 200 µM.
For `O=C1OC(c2ccccc2)=N/C1=C/c1ccc2c(c1)OCO2`, the EC50 was more than 24.5 µM and the IC50 is more than 24.5 µM.
Consider `CN(C)C=Nc1cccc2c1NSN2`, for which the EC50 is more than 200 µM and the IC50 was more than 200 µM.
`O=C1CCC2c3[nH]c4ccccc4c3CCN12` (centres undefined): the EC50 is more than 200 µM and the IC50 was determined as 186 µM.
In the same order, the values of `Cc1cn([C@H]2C[C@@H](N3C(=O)c4ccccc4C3=O)[C@@H](CO[Si](C)(C)C(C)(C)C)O2)c(=O)[nH]c1=O` are more than 200 µM and 151 µM.
Turning to `O=C1C2C(C(=O)N1c1ccccc1)C1(c3ccccc3)CCC2(C(=O)c2ccccc2)O1` (centres undefined), the EC50 was more than 200 µM and the IC50 turned out to be 50.1 µM.
Take `O=C(C/C(=N/O)C(=O)NC1=C(Cl)C(=O)c2ccccc2C1=O)CC(c1ccccc1)c1c(O)c2ccccc2oc1=O` (centres undefined): the EC50 was more than 12.3 µM and the IC50 turned out to be 6.61 µM.
Take `O=C1/C(=C/c2ccccc2)CCCc2ccccc21`: the EC50 is more than 200 µM and the IC50 stood at 21.4 µM.
Consider `CCCCOC(=O)c1ccc(N)cc1`, for which the EC50 was more than 200 µM.
`O=C1/C(=C\c2cccc(Oc3ccccc3)c2)SC(c2ccccc2)N1Cc1ccccc1` (centres undefined): the EC50 is more than 20 µM and the IC50 is 1.29 µM.
`O=c1c(Cl)c(N2CCCCC2)cnn1-c1ccccc1`: the EC50 was more than 174 µM and the IC50 is more than 174 µM.
With `COC1CC(CC2CCC(C)C(C(C)C(=O)O)O2)OC2(OC(C)(C3CCC(C)(C4OC(C5OC(O)(CO)C(C)CC5C)CC4C)O3)CC2C)C1C` (centres undefined), the EC50 was 0.0575 µM and the IC50 was 0.537 µM.
On to `Cc1cccc(NC(=O)CC2C(=O)Nc3ccccc3S2(=O)=O)c1C` (centres undefined), for which the EC50 is more than 5.62 µM and the half-maximal inhibitory concentration (IC50) is more than 5.62 µM.
For `CCP(=S)(CC)CCl`, the EC50 was more than 200 µM and the IC50 was more than 200 µM.
As for `[O-]/N=[N+](/[O-])C1CCCCC1=[N+]1CCOCC1` (centres undefined), the EC50 is more than 200 µM and the IC50 was determined as 32.4 µM.
On to `O=C(NCCCCCN1CCC2(CCCCC2)CC1)C(c1ccccc1)C1CCCCC1` (centres undefined), for which the EC50 was more than 200 µM and the IC50 was 5.75 µM.
`Cc1cc(O)ccc1N=O`: the EC50 was more than 200 µM and the IC50 came to 3.39 µM.
For `c1ccc2nn(C3CCCCO3)nc2c1` (centres undefined), the EC50 was more than 200 µM and the half-inhibitory concentration (IC50) was more than 200 µM.
As to `Clc1ccc(Cl)c(-c2nc3ccccc3[nH]2)c1`, the EC50 is more than 97.7 µM and the IC50 is more than 97.7 µM.
In the case of `NC(N)=NS(=O)(=O)c1ccc(Nc2c3ccccc3nc3c(C(=O)NCCO)cccc23)cc1`, the EC50 is more than 200 µM and the IC50 amounted to 8.91 µM.
`CC(=O)COC(=O)CC(C)=O`: the result was inactive.
For the compound `CC1(C)C2CC3OC3(C)C1C2` (centres undefined), the EC50 was more than 200 µM and the IC50 was more than 200 µM.
For `COc1ccc(/C=c2\sc3n(c2=O)C(N)=C(C#N)C(c2ccc(OC)cc2)C=3c2nc3ccccc3[nH]2)cc1` (centres undefined), the EC50 is more than 7.08 µM and the IC50 is more than 7.08 µM.
Consider `O=C1c2ccccc2C(=O)c2c(NCCOCCO)ccc(NCCOCCO)c21`, for which the EC50 was more than 200 µM and the IC50 stood at 107 µM.
With `O=S(OO)c1cc(Cl)c(O)c(Cl)c1` (centres undefined), the EC50 was more than 1020 µM and the IC50 is more than 1020 µM.
Regarding `CCOC(=O)NC(NC(=O)OCC)C(NC(=O)OCC)NC(=O)OCC`, the EC50 is more than 200 µM and the IC50 was more than 200 µM.
In the case of `O=C(O)c1c2c(cc3c1CC1(Cc4cc5c(cc4C1=O)CCC5)C3)CCC2` (centres undefined), the EC50 is more than 200 µM and the IC50 worked out at 72.4 µM.
In the same order, the values of `O=C(CCCn1ccnc1[N+](=O)[O-])NCCn1ccnc1[N+](=O)[O-]` are more than 200 µM and more than 200 µM.
For the compound `CC(CSC(=N)N)C(N)=O` (centres undefined), the EC50 was more than 200 µM and the IC50 was more than 200 µM.
Regarding `N#CC(c1ccccc1)N(CCOCCOCCN(C(=O)c1cccc2ccccc12)C(C#N)c1ccccc1)C(=O)c1cccc2ccccc12` (centres undefined), the EC50 was more than 200 µM and the IC50 amounted to 13.2 µM.
In the case of `C=C1c2nc3ccccc3n2C=C(c2ccc(OC)cc2)N1c1ccccc1`, the EC50 is more than 200 µM and the concentration for half-maximal inhibition (IC50) is 3.8 µM.
For the compound `Cc1ccc(C)c(N2C(=O)C(=O)C(c3nc4ccccc4s3)/C(=N/N)C2=O)c1` (centres undefined), the EC50 is more than 50.1 µM and the IC50 was more than 50.1 µM.
Take `O=C1C2CCCC3CCCC(C(=O)N1O)C32` (centres undefined): the EC50 was more than 200 µM and the IC50 is 39.8 µM.
For the compound `C=CCNC(=O)N(CCC)CCCCC(NC(C)=O)C(=O)NCc1ccccc1` (centres undefined), the EC50 was more than 89.1 µM and the 50% inhibitory concentration (IC50) was more than 89.1 µM.
As for `COc1cc2c(cc1O)C1C(O2)c2c(OC)cc3c(c2OC1(C)C)CCC(C)(C)O3` (centres undefined), the EC50 is more than 200 µM and the IC50 is 32.4 µM.
In the case of `CCC[CH2][Sn]([CH2]CCC)([O]C(=O)C(OC)c1ccccc1)[O]C(=O)C(OC)c1ccccc1` (centres undefined), the EC50 is more than 6.76 µM and the IC50 stood at 0.182 µM.
`COc1ccc(CN2CCCN(Cc3ccc(OC)cc3)C2c2cc([N+](=O)[O-])ccc2O)cc1`: the EC50 is more than 200 µM and the IC50 amounted to 28.8 µM.
Regarding `COC(=O)c1c(C(=O)OC)c2ccccn2c1-c1cc(OC)c(Br)c(=O)o1`, the EC50 was more than 200 µM and the IC50 is more than 200 µM.
`N#CC[C@@H](O)COc1ccccc1`: the EC50 was more than 200 µM and the IC50 was more than 200 µM.
Regarding `O=c1[nH]c2ccccc2c(O)c1Cc1c(O)c2ccccc2[nH]c1=O`, the EC50 is more than 25.1 µM and the IC50 is more than 25.1 µM.
As for `CC[C@@]1(OC(=O)CCC(=O)O)C(=O)OCc2c1cc1n(c2=O)Cc2cc3ccccc3nc2-1`, the EC50 is more than 10 µM and the IC50 was 0.00708 µM.
As to `O=C(NC(O)(C(F)(F)F)C(F)(F)F)c1ccccc1`, the EC50 was more than 200 µM and the concentration for half-maximal inhibition (IC50) turned out to be 129 µM.
Consider `COc1cc(OC)c(/C=C/c2ccc3ccccc3[n+]2[O-])c(OC)c1`, for which the EC50 is more than 56.2 µM and the IC50 was more than 56.2 µM.
On to `[N-]=[N+]=Nc1cc(=O)n(-c2ccccc2)c(=O)n1-c1ccccc1`, for which the EC50 is more than 200 µM and the IC50 is more than 200 µM.
With `CCOC(=O)C(=O)NNc1cc(=O)n(C)c(=O)n1C`, the EC50 is more than 200 µM and the IC50 is more than 200 µM.
As to `CCCCN1C(=O)C2c3[nH]c4ccccc4c3C3CCCCC3C2C1=O` (mixture of isomers), the result was inactive.
For the compound `CC1(C)CC(Br)(Cc2ccccc2)C(=O)c2ccccc21` (centres undefined), the EC50 is more than 200 µM and the IC50 was determined as 7.94 µM.
Regarding `CC(CCc1nc2ccccc2o1)C1CCC2C3CC[C@@H]4C[C@H](O)CC[C@]4(C)C3C[C@H](O)[C@]12C` (some centres undefined), the EC50 was more than 50.1 µM and the IC50 was 7.24 µM.
With `CC(OC(=O)C(CC(=O)OC(C)(C)C)NC(=O)OC(C)(C)C)C(=O)OCc1ccccc1` (centres undefined), the EC50 is more than 200 µM and the IC50 is more than 200 µM.
On to `CCN(CC)C(=S)N=Nc1c(O)[nH]c2ccccc12`, for which the EC50 is more than 200 µM and the IC50 came to 1.1 µM.
Turning to `O=C(O)CCNS(=O)(=O)c1ccc([N+](=O)[O-])cc1`, the result was inactive.
As to `O=C1C[N+]2(Cc3ccccc3)CCC1CC2`, the EC50 was more than 851 µM and the IC50 is more than 851 µM.
For `O=[N+]1[C@H](c2ccccc2)[C@H](c2ccccc2)N1[O-]`, the EC50 was more than 200 µM and the IC50 was 11.5 µM.
In the case of `Nc1ccn(C2CC(O)C(COP(=O)(O)OC3C(COP(=O)(O)O)OCC3n3cnc4c(N)ncnc43)O2)c(=O)n1` (centres undefined), the EC50 was more than 200 µM and the IC50 is more than 200 µM.
As to `CC(=O)OC1COC(OC2CC3(C)C4CC=C5C(C=C(O)CC5(C)C)[C@]4(C)CC[C@]3(C)C2C(C)(O)C(=O)/C=C/C(C)(C)O)C(OC(C)=O)C1O` (some centres undefined), the outcome was inactive.
`Cc1cc(-c2ccc(N=Nc3c(N)c(S(=O)(=O)O)cc4cc(S(=O)(=O)O)ccc34)c(C)c2)ccc1N=Nc1c(N)ccc2cc(S(=O)(=O)O)ccc12`: the outcome was active.
Regarding `CN=C(/N=c1\ssc(=NC)n1C)N(C)C`, the EC50 is more than 70.8 µM and the IC50 was found to be 50.1 µM.
As for `COc1ccc(Br)c(CCC(CO)C2=CCC3(CC2)OCCO3)c1` (centres undefined), the EC50 is 15.8 µM and the IC50 was 87.1 µM.
As to `CCCCOC(C)(C)/C=C/C(O)[C@](C)(O)[C@H]1[C@H](O)C[C@@]2(C)[C@@H]3CCc4c(cc(OC5OC(CO)C(O)C(O)C5O)c(O)c4C)C3(C)C(=O)C[C@]12C` (some centres undefined), the EC50 was more than 200 µM and the IC50 was more than 200 µM.
`O=c1[nH]c2cc(Cl)ccc2nc1/C(=N\O)C(O)c1ccc(Cl)cc1Cl` (centres undefined): the EC50 is more than 74.1 µM and the IC50 was more than 74.1 µM.
Consider `S=c1nc2[nH]c3ccccc3c2n[nH]1`, for which the EC50 is more than 200 µM and the IC50 was more than 200 µM.
On to `O=c1c(-c2ccc(O)cc2)coc2c(O)c(O)ccc12`, for which the EC50 was more than 200 µM and the IC50 is 28.8 µM.
